This is an account of results in patent US9849140B2, “Topical compositions comprising bimatoprost and methods for stimulating hair growth therewith” (Allergan, Inc., priority 2009, dated 2017).

Molecules are shown by their SMILES.

Data set [1] deals with men with mild to moderate androgenic alopecia (AGA). Nature of the data set: Phase 2 multicenter trial, scalp hair growth efficacy (DIA: TAHC, TAHW, TAHD; SSA, IGA, GPR). It counts as in vivo, human. As for the experimental part: (§1) In a phase 2 multicenter trial, men 18-49 years of age with mild to moderate androgenic alopecia (AGA) were randomized in a 1:1:1:1:1 ratio to receive in a double-blind manner bimatoprost (BIM) 0.3%, 0.1%, 0.03%, or vehicle applied once daily, or open label over-the-counter minoxidil 5% solution (MIN) applied twice daily to the vertex area of the scalp for 6 months. Subjects were evaluated every 2 months during treatment and at 2 months after completing treatment. The BIM formulations used in this study were as described in Table 3 above.
The following assessments were made with digital image analysis (DIA; macrophotographs of a prespecified 1-cm^2 circular area at the anterior leading edge of the vertex thinning area of the scalp identified by microdot tattoo) using customized validated software: Target Area Hair Count (TAHC) measured in terminal hairs/cm^2; Target Area Hair Width (TAHW) measured in mm/cm^2; and, Target Area Hair Darkness (TAHD) measured in intensity units;
Co-primary efficacy endpoints measured included the change from baseline in TAHC and the SSA of change in scalp hair growth. Secondary efficacy endpoints included changes from baseline in TAHW and TAHD, and IGA/GPR of changes in scalp hair growth. […]

Data set [2] shares this test system. Nature of the data set: Phase 2 multicenter trial, safety (treatment-related adverse events, clinical laboratory, vital signs, ECGs, physical examinations). In kind it is in vivo, human. As for the experimental part:
as §1
Safety measures included adverse event monitoring, local tolerability assessment, clinical laboratory testing, vital signs, 12-lead electrocardiograms (ECGs), and physical examinations.
Percent changes from baseline in TAHC, TAHW, and TAHD were analyzed using the Wilcoxon rank-sum test. Frequency distributions of SSA, IGA, and GPR scores were analyzed using a Cochran-Mantel-Haenszel test stratified for age group (18-34 vs 35-49 years), and missing data were imputed to month 6 using a last-observation-carried-forward approach. Safety measures were evaluated in all subjects who received study medication; among-group and pairwise comparisons of the incidence of adverse events were performed using a chi-square or Fisher's exact test

Consider `CCNC(=O)CCC/C=C\C[C@@H]1[C@@H](/C=C/[C@@H](O)CCc2ccccc2)[C@H](O)C[C@@H]1O` [bimatoprost, cyclopentane N-ethyl heptanamide-5-cis-2-(3α-hydroxy-5-phenyl-1-trans-pentenyl)-3,5-dihy-droxy, [1α,2β,3α,5α]], for which the “distribution of SSA (Subject Self Assessment) scores versus vehicle, in words” value in data set [1] (month 6) was “did not differ”. The “changes in TAHC and TAHW versus vehicle, in words” value in data set [1] (two months after stopping treatment) is recorded as “no longer significantly different from vehicle”. The “incidence of treatment-related adverse events, in words” value in data set [2] (compared with vehicle and minoxidil) is “slightly higher with bimatoprost compared with vehicle, but lower than the rate with minoxidil”. In addition, in data set [2] (human, in vivo), the “changes in clinical laboratory parameters, vital signs, ECGs, or physical examinations, in words” value is “no clinically meaningful or dose-dependent changes”; the “safety and tolerability profile, in words” value is “consistent with that of an established topical treatment for scalp hair growth”.
